Earlier results as cited in patent publication US6902746B2, “Oral pharmaceutical compositions containing non-steroidal anti-inflammatory drugs and method for preparing the same” (Yung Shin Pharmaceutical Industrial Co., Ltd., priority 2002, dated 2005).

Experiments:
[1] = system: M.K. and δ opioid receptors
[2] = animal studies; fraction of the effect of ketorolac tromethamine
[3] = animal studies; fraction of the effect of ketorolac tromethamine; remark: listed apart in the source
platelet aggregation = conditions: in vitro; fraction of the activity of ketorolac tromethamine
[4] = in vivo

O=C(c1ccccc1)c1ccc2n1CCC2C(=O)O (stereo not shown) [ketorolac]
binding to opioid receptors [1]: does not bind

O=C(c1ccc(O)cc1)c1ccc2n1CCC2C(=O)O (stereo not shown) [p-hydroxyketorolac]
analgesic effect relative to ketorolac tromethamine [2]: 1/100
anti-inflammatory effect relative to ketorolac tromethamine [3]: less than ⅕
anti-platelet aggregation activity relative to ketorolac tromethamine (platelet aggregation): 1/25

(±)-5-benzoyl-2,3-dihydro-1H-pyrrolizine-1-carboxylic acid 2-amino-2-(hydroxymethyl)-1,3-propanediol [Ketorolac tromethamine]
plasma half-lives ([4]; human): markedly prolonged
total clearance ([4]; human): decreased
administered drug eliminated in the urine [4]: about 75%
administered drug, in its original form, found in the feces [4]: About 6%
bound to plasma proteins [4]: about 99%
mean elimination half-live [4]: 5.3 h
mean volume of distribution at steady state [4]: 0.11 L/kg
mean volume of distribution during the elimination phase [4]: 0.17 to 0.25 L/kg
absorption in the presence of antacids ([4]; po): not affected
